# Measurements reported in patent US20260242350A1, “POLYCYCLIC THYROID HORMONE BETA RECEPTOR AGONIST AND USE THEREOF” (CASCADE PHARMACEUTICALS, INC., priority 2023, published 2026).
# Experiments:
# THRβ (pGAL4-THRβ-LBD) = biological target: T1, THRβ (pGAL4-THRβ-LBD) (Homo sapiens, UniProt P10828); assay: Reporter gene (Dual-Glo luciferase) agonist activity assay in HEK293T cells, THRβ; format: cell-based; conditions: ratio of EC50 THRα/THRβ
# T1 construct: expressed in transfected cells; host or cells: HEK293T
# T1 sequence (P10828 217-461): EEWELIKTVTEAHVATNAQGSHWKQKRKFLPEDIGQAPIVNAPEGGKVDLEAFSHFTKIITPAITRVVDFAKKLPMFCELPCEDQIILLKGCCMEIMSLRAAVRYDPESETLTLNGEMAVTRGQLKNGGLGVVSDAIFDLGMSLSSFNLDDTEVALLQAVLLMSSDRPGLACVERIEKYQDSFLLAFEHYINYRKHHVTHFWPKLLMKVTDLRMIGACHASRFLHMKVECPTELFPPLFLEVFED
# Excerpt: Experimental Example 2: Detection of Agonist Activities of Compounds Against THRα and THRβ Based on Reporter Gene Activity Assay Method
# 1.1 Construction and Preparation of Plasmids pGAL4-THR-LBD and pG5-Luc
# The pGAL4-THRα-LBD and pGAL4-THRβ-LBD plasmids used in the reporter gene assay system were constructed by a conventional molecular cloning method comprising the following main steps: the cDNA sequences of THRα (NM_003250) and THRβ(NM_000461) corresponding to the amino acid sequences of THRα (163-407AA) and THRβ(217-461AA) were inserted into the BamHI and NotI enzyme digestion sites of the pGAL4 vector by the PCR technique respectively to obtain the pGAL4-THRα-LBD and pGAL4-THRβ-LBD plasmids; the pG5-Luc (#E249A) and pRL-TK (#E2241) plasmids were purchased from Promega; the plasmids were transfected into the E. coli DH5a by the CaCl2 method, and after further culture and amplification, the plasmids were purified by Plasmid Extraction Kits (TIANGEN, #D107) to obtain the corresponding plasmid DNAs.
# 1.2 Co-Transfection of Plasmids into HEK293T Cells and Treatment with Compounds
# The HEK293T cells were inoculated into a 96-well plate at a density of 1×10^4/well the day before plasmid transfection. Cell transfection was conducted according to the instructions of the transfection reagent FuGENE® HD (Promega, #E2311). The main steps were as follows: taking one well as an example here, the plasmids pGAL4-THRα-LBD or pGAL4-THRβ-LBD, pG5-Luc, and pRL-TK were added in the proportions of 20 ng, 50 ng, and 5 ng to 10 μL of Opti-MEM™ I medium (Gibco, #11058021) and mixed well; subsequently, 0.25 μL of FuGENE® HD was added, mixed well, and then left at room temperature for 5 min; afterwards, […] was added to the cell wells containing 100 μL of culture medium. After cell co-transfection for 6 h, the compound was diluted in a 3-fold gradient with dimethyl sulfoxide at the highest concentration of 1 μM. The compound was added to the cell culture medium at a total of 10 concentrations for treatment for 24 h. There were a total of two duplicate wells for each concentration. Triiodothyronine (T3) was used as the positive control.
# 1.3 Dual-Glo Luciferase Assay
# After the cells were treated with the compound for 24 h, the cells were assayed according to the instructions of Dual-Glo® Luciferase Assay System (Promega, #E2940). The main steps were as follows: 50 μL of culture medium was aspirated from each well and discarded, and then 50 μL of Dual-Glo® Luciferase reagent was added and oscillated at room temperature for 10 min; 80 μL of lysis reaction solution was measured into a white opaque optiPlate-96-well plate, and the luminescence signal value (Firefly-Luc) of the Firefly luciferase was detected using an MD i3x multi-mode microplate reader; 40 μL of Dual-Glo® Stop & Glo® reagent was then added, and oscillated at room temperature for 10 min; the luminescence signal value (Renilla-Luc) of the Renilla luciferase was then detected using an MD i3x multi-mode microplate reader. The Firefly-Luc/Renilla-Luc ratio was used as the activation activity of the compound against THR, and was normalized against the ratio in the vehicle DMSO group; the dose-response curve was fitted with four parameters using the GraphPad Prism6.0 software, and the EC50 value was calculated.
# [1] = biological target: T2, THRβ LBD (His-GST-dLBT-THRβLBD) (Homo sapiens, UniProt P10828); assay: THR-FRET (time-resolved fluorescence resonance energy transfer) agonist activity assay, THRβ; format: biochemical; conditions: for EC50: 24 h at room temperature; for Selectivity (THRα/THRβ): ratio of EC50 THRα/THRβ
# T2 construct: made in house; host or cells: E. coli BL21 (DE3)
# T2 sequence (P10828 217-461 limits assumed): T1 sequence (P10828 217-461)
# Excerpt: (§1) Experimental Example 1: Detection of Agonist Activities of Compounds Against THRα/β Based on Time-Resolved Fluorescence Resonance Energy Transfer (THR-FRET)
# (§2) 1. Construction of THRα/β Overexpression Vectors
# (§3) By visiting NCBI, the THRα/β LBD domain sequences were found. The pET21-His-GST-dLBT-THRα LBD and pET21-His-GST-dLBT-THRβLBD overexpression vectors were constructed by the fusion method, and sequenced to confirm the accuracy of the sequences.
# (§4) 2. Prokaryotic Expression of Recombinant Proteins in E. coli
# (§5) The THRα LBD and THRβLBD overexpression vectors confirmed by sequencing were transfected into E. coli cells BL21 (DE3), and spread on an ampicillin-resistant agar plate. Monoclones were picked out and amplified in an LB medium, and transferred into 1 L LB at a ratio of 1:100 for large-scale culture. When the OD value was at 0.8 to 1.2, 0.5 mM isopropyl-beta-D-thiogalactopyranoside (IPTG) was added, and induced overnight at 18° C. The bacteria were harvested, disrupted, and purified via the GST column and the molecular sieve to obtain two proteins His-GST-dLBT-THRα LBD and His-GST-dLBT-THRβLBD.
# (§6) 3. Preparation of Compounds and Formulation of Reaction System
# (§7) The proteins were taken out from a refrigerator at −80° C. The protein s with the GST-tagged THRα/p LBD domain and the Eu-labelled GST antibodies were thawed slowly on ice, and an assay buffer containing a final concentration of 5 mM dithiothreitol (DTT) was formulated.
# (§8) 3.1 Preparation of Compounds
# (§9) The starting concentration of the compound was 10 μM (in DMSO). The compound (100 μM in DMSO) was subjected to 3-fold isogradient dilution with DMSO to obtain a total of 11 isogradient concentrations. Subsequently, the above compounds at the isogradient concentration were further subjected to 50-fold dilution with an assay buffer containing 5 mM DTT.
# (§10) 3.2 Formulation of THR-FRET Reaction System
# (§11) The final concentrations of all components were calculated based on a system with a final volume of 20 µL per well. To […] of assay buffer containing 5 mM DTT, the GST-tagged THRα/β proteins, the SRC2 ([…]) polypeptide, XL665 (Cisobio, #610SAXLB), and the Eu-labeled GST antibody were added, and the final concentrations were 2 nM, 200 nM, 0.05 nM, and 7.6 nM respectively to formulate 18 μL of reaction mixture of the proteins, polypeptide, and antibody per well.
# (§12) 18 μL of reaction mixture and 2 μL of diluted compound were added into an optiplate-384-well plate, and reacted at room temperature for 24 h.
# (§13) The plate was read using an MD i3x multi-mode microplate reader with the excitation and emission wavelengths of 340 nm and 665 nm, respectively. The intensity of light at a wavelength of 616 nm generated by europium excited by 340 nm wavelength light from the MD i3x multi-mode microplate reader was used as the background. According to the different activation degrees of different compounds against THRα and THRβ, the intensity of the emission light at a wavelength of 665 nm generated by exciting XL665 with the exciting light at a wavelength of 616 nm was varied. The intensity ratio between these two light wavelengths (665 nm, 616 nm) was used as the activation activity of the compound against THRα or THRβ, and was normalized against the ratio in the vehicle DMSO group. The dose-response curve was fitted with four parameters using the GraphPad Prism 6.0 software, and the EC50 value was calculated.
# [2] = biological target: T3, THRα LBD (His-GST-dLBT-THRα LBD) (Homo sapiens, UniProt P10827); assay: THR-FRET (time-resolved fluorescence resonance energy transfer) agonist activity assay, THRα; format: biochemical; conditions: 24 h at room temperature
# T3 construct: made in house; host or cells: E. coli BL21 (DE3)
# T3 sequence (P10827 163-407 isoform P10827-2): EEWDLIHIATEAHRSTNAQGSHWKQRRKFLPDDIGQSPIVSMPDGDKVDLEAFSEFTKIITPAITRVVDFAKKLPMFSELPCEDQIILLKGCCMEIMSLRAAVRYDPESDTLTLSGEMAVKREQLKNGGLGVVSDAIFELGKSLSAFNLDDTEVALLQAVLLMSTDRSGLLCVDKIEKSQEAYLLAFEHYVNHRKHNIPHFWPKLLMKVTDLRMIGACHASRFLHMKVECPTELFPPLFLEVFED
# Excerpt: as §1, §2, §3, §4, §5, §6, §7, §8, §9, §10, §11, §12, §13
Structure (SMILES),Selectivity (THRα/THRβ) (THRβ (pGAL4-THRβ-LBD)),EC50 [1],Selectivity (THRα/THRβ) [1],EC50 [2]
O=c1cnn(-c2cc(Cl)c(Cn3ccc(=O)c4ccccc43)c(Br)c2)c(=O)[nH]1 [Compound 3],† (5 ≥ THRα/β),100 to 1000 nM,†† (10 > THRα/β > 1),100 to 1000 nM
O=c1cnn(-c2cc(Cl)c(Cn3ccc(=O)c4c(Cl)cccc43)c(Cl)c2)c(=O)[nH]1 [Compound 13],† (5 ≥ THRα/β),100 to 1000 nM,†† (10 > THRα/β > 1),1000 to 10000 nM
Cc1cccc2c1c(=O)ccn2Cc1c(Cl)cc(-n2ncc(=O)[nH]c2=O)cc1Cl [Compound 14],† (5 ≥ THRα/β),100 to 1000 nM,†† (10 > THRα/β > 1),100 to 1000 nM
Cc1cccc2c1c(=O)ccn2Cc1c(Cl)cc(-n2ncc(=O)[nH]c2=O)cc1Br [Compound 17],††† (20 ≥ THRα/β > 10),< 50 nM,†† (10 > THRα/β > 1),100 to 1000 nM
Cc1cccc2c1c(=O)ccn2Cc1c(Br)cc(-n2ncc(=O)[nH]c2=O)cc1Br [Compound 18],†† (10 ≥ THRα/β > 5),< 50 nM,†† (10 > THRα/β > 1),50 to 100 nM
O=c1[nH]c(=O)n(-c2cc(Cl)c(Cn3ccc(=O)c4ccccc43)c(Cl)c2)nc1C(F)F [Compound 28],†††† (THRα/β > 20),< 50 nM,†† (10 > THRα/β > 1),100 to 1000 nM
O=c1[nH]c(=O)n(-c2cc(Br)c(Cn3ccc(=O)c4ccccc43)c(Br)c2)nc1C(F)F [Compound 29],†††† (THRα/β > 20),< 50 nM,†† (10 > THRα/β > 1),50 to 100 nM
O=c1[nH]c(=O)n(-c2cc(Cl)c(Cn3ccc(=O)c4ccccc43)c(Br)c2)nc1C(F)F [Compound 30],†††† (THRα/β > 20),< 50 nM,†† (10 > THRα/β > 1),100 to 1000 nM
Nc1nn(-c2cc(Cl)c(Cn3ccc(=O)c4ccccc43)c(Cl)c2)c(=O)[nH]c1=O [Compound 32],† (5 ≥ THRα/β),100 to 1000 nM,†† (10 > THRα/β > 1),1000 to 10000 nM
C=Cc1nn(-c2cc(Cl)c(Cn3ccc(=O)c4ccccc43)c(Cl)c2)c(=O)[nH]c1=O [Compound 35],† (5 ≥ THRα/β),100 to 1000 nM,†† (10 > THRα/β > 1),1000 to 10000 nM
O=c1[nH]c(=O)n(-c2cc(Cl)c(Cn3ccc(=O)c4ccccc43)c(Cl)c2)nc1CF [Compound 37],†††† (THRα/β > 20),50 to 100 nM,†† (10 > THRα/β > 1),100 to 1000 nM
Cc1nn(-c2cc(Cl)c(Cn3ccc(=O)c4ccccc43)c(Cl)c2)c(=O)[nH]c1=O [Compound 41],† (5 ≥ THRα/β),100 to 1000 nM,†† (10 > THRα/β > 1),1000 to 10000 nM
Cc1nn(-c2cc(Br)c(Cn3ccc(=O)c4ccccc43)c(Br)c2)c(=O)[nH]c1=O [Compound 43],† (5 ≥ THRα/β),50 to 100 nM,†† (10 > THRα/β > 1),100 to 1000 nM
Cc1nn(-c2cc(Cl)c(Cn3ccc(=O)c4c(C)cccc43)c(Cl)c2)c(=O)[nH]c1=O [Compound 44],† (5 ≥ THRα/β),50 to 100 nM,†† (10 > THRα/β > 1),100 to 1000 nM
